Laboratory results from the supplement of paper PMC11451515.

Experiments:
Conditions in all cases: 48 h
SEM cells [1] = assay: cell viability relative to DMSO control; higher = less cytotoxic
Procedure, shortened: (§1)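 Library compounds in DMSO were pin-dosed in an 11-point threefold series (47 μM to 0.79 nM) onto leukemia cells in 1536-well plates (5 μl). Plates held 500 cells/well of NOMO1 or SEM or 1000 cells/well of P12-Ichikawa, each adapted for at least four passages in each medium. Luminescence was read with CellTiter-Glo One after 48 h at 37°C. Viability means the per-plate percentage relative to DMSO wells, using cell-free wells as background.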

NOMO1 [2] = assay: AUC of viability dose-response curve (% viability x log10 dose units); higher = less sensitive
Procedure, shortened: (§2)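 Leukemia cells adapted to each medium were seeded at 500 or 1000 cells/well in 1536-well plates and dosed with library compounds in DMSO at 11 threefold doses from 47 μM to 0.79 nM for 48 h at 37°C. CellTiter-Glo One luminescence was normalised per plate to DMSO and cell-free wells, then fitted with a four-parameter log-logistic model over log10 doses. Area under the curve was taken from this fit by the trapezoidal rule, with curves above full viability scaled and curves failing quality control removed.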

P12-Ichikawa [3] = assay: as above
Procedure, shortened: as §2

SEM cells [4] = assay: as above
Procedure, shortened: as §2

NOMO1 [5] = assay: cell viability relative to DMSO control; higher = less cytotoxic
Procedure, shortened: as §1

P12-Ichikawa [6] = assay: as above
Procedure, shortened: as §1

OC(CN1CCC(Cc2ccc(F)cc2)CC1)c1ccc(Cl)cc1 (stereo unspecified)
cell viability [%], SEM cells [1]
Conditions | HPLM + 10% dialyzed FBS | RPMI 5 mM glucose + 10% dialyzed FBS
0.000781 µM | 106 | 116
0.00234 µM | 118 | 125
0.00702 µM | 108 | 115
0.0211 µM | 115 | 129
0.0632 µM | 116 | 126
0.19 µM | 118 | 139
0.569 µM | 117 | 140
1.71 µM | 122 | 136
5.12 µM | 124 | 125
15.4 µM | 130 | 128
46.1 µM | 129 | 136

AUC of viability dose-response curve
Conditions | NOMO1 [2] | P12-Ichikawa [3] | SEM cells [4]
HPLM + 10% dialyzed FBS | 456 | 449 | 440
RPMI 5 mM glucose + 10% FBS | 455 | 451 | 451
RPMI 5 mM glucose + 10% dialyzed FBS | 448 | 451 | 461

Cc1c(C(=O)NN2CCCCC2)nn(-c2ccc(Cl)cc2Cl)c1-c1ccc(Cl)cc1
cell viability [%]
Conditions | HPLM + 10% dialyzed FBS | RPMI 5 mM glucose + 10% FBS | RPMI 5 mM glucose + 10% dialyzed FBS
NOMO1 [5], 0.000781 µM | – | – | 122
NOMO1 [5], 0.00234 µM | – | – | 120
NOMO1 [5], 0.00702 µM | – | – | 125
NOMO1 [5], 0.0211 µM | – | – | 143
NOMO1 [5], 0.0632 µM | – | – | 128
NOMO1 [5], 0.19 µM | – | – | 138
NOMO1 [5], 0.569 µM | – | – | 76.3
NOMO1 [5], 1.71 µM | – | – | 46.8
NOMO1 [5], 5.12 µM | – | – | 32.8
NOMO1 [5], 15.4 µM | – | – | 28.1
NOMO1 [5], 46.1 µM | – | – | 36
SEM cells [1], 0.000781 µM | 103 | 103 | 107
SEM cells [1], 0.00234 µM | 125 | 112 | 120
SEM cells [1], 0.00702 µM | 113 | 118 | 137
SEM cells [1], 0.0211 µM | 114 | 118 | 116
SEM cells [1], 0.0632 µM | 128 | 118 | 128
SEM cells [1], 0.19 µM | 129 | 127 | 149
SEM cells [1], 0.569 µM | 122 | 127 | 139
SEM cells [1], 1.71 µM | 124 | 135 | 144
SEM cells [1], 5.12 µM | 131 | 130 | 119
SEM cells [1], 15.4 µM | 127 | 129 | 133
SEM cells [1], 46.1 µM | 93 | 99.5 | 104

AUC of viability dose-response curve
Conditions | HPLM + 10% dialyzed FBS | RPMI 5 mM glucose + 10% FBS | RPMI 5 mM glucose + 10% dialyzed FBS
NOMO1 [2] | 325 | 303 | 337
SEM cells [4] | 473 | 455 | 469

O=c1[nH]c2ccccc2n1C1CCN(Cc2ccc(-c3nc4cc5nc[nH]c5cc4nc3-c3ccccc3)cc2)CC1
cell viability [%]
Conditions | NOMO1 [5] | P12-Ichikawa [6] | SEM cells [1]
HPLM + 10% dialyzed FBS, 0.000781 µM | 95.9 | 109 | 97.3
HPLM + 10% dialyzed FBS, 0.00234 µM | 126 | 125 | 103
HPLM + 10% dialyzed FBS, 0.00702 µM | 114 | 116 | 107
HPLM + 10% dialyzed FBS, 0.0211 µM | 126 | 125 | 109
HPLM + 10% dialyzed FBS, 0.0632 µM | 133 | 117 | 105
HPLM + 10% dialyzed FBS, 0.19 µM | 130 | 132 | 103
HPLM + 10% dialyzed FBS, 0.569 µM | 108 | 115 | 106
HPLM + 10% dialyzed FBS, 1.71 µM | 97 | 102 | 64.6
HPLM + 10% dialyzed FBS, 5.12 µM | 90.7 | 105 | 98.3
HPLM + 10% dialyzed FBS, 15.4 µM | 103 | 109 | 88.6
HPLM + 10% dialyzed FBS, 46.1 µM | 95.9 | 115 | 86.5
RPMI 5 mM glucose + 10% FBS, 0.000781 µM | 101 | 111 | 69.5
RPMI 5 mM glucose + 10% FBS, 0.00234 µM | 119 | 102 | 68.9
RPMI 5 mM glucose + 10% FBS, 0.00702 µM | 108 | 110 | 79.1
RPMI 5 mM glucose + 10% FBS, 0.0211 µM | 113 | 111 | 70.3
RPMI 5 mM glucose + 10% FBS, 0.0632 µM | 123 | 115 | 75.1
RPMI 5 mM glucose + 10% FBS, 0.19 µM | 113 | 114 | 77.7
RPMI 5 mM glucose + 10% FBS, 0.569 µM | 115 | 106 | 73.2
RPMI 5 mM glucose + 10% FBS, 1.71 µM | 107 | 85.4 | 37.9
RPMI 5 mM glucose + 10% FBS, 5.12 µM | 111 | 104 | 60.3
RPMI 5 mM glucose + 10% FBS, 15.4 µM | 121 | 109 | 60.2
RPMI 5 mM glucose + 10% FBS, 46.1 µM | 118 | 106 | 46.4
RPMI 5 mM glucose + 10% dialyzed FBS, 0.000781 µM | 98.8 | 121 | 89.6
RPMI 5 mM glucose + 10% dialyzed FBS, 0.00234 µM | 104 | 114 | 101
RPMI 5 mM glucose + 10% dialyzed FBS, 0.00702 µM | 109 | 114 | 109
RPMI 5 mM glucose + 10% dialyzed FBS, 0.0211 µM | 105 | 121 | 106
RPMI 5 mM glucose + 10% dialyzed FBS, 0.0632 µM | 116 | 114 | 103
RPMI 5 mM glucose + 10% dialyzed FBS, 0.19 µM | 116 | 110 | 115
RPMI 5 mM glucose + 10% dialyzed FBS, 0.569 µM | 103 | 105 | 94.6
RPMI 5 mM glucose + 10% dialyzed FBS, 1.71 µM | 107 | 91.1 | 50.5
RPMI 5 mM glucose + 10% dialyzed FBS, 5.12 µM | 97.9 | 103 | 98.9
RPMI 5 mM glucose + 10% dialyzed FBS, 15.4 µM | 115 | 96 | 88.9
RPMI 5 mM glucose + 10% dialyzed FBS, 46.1 µM | 102 | 107 | 70.9

AUC of viability dose-response curve
Conditions | HPLM + 10% dialyzed FBS | RPMI 5 mM glucose + 10% FBS | RPMI 5 mM glucose + 10% dialyzed FBS
NOMO1 [2] | 439 | 463 | 474
P12-Ichikawa [3] | 457 | 460 | 443
